Data on one molecule can be found in publication PMC8910920 (International Journal of Molecular Sciences, 2022).

In one test the target is T1, rTRPM8 (Rattus norvegicus, UniProt Q8R455).
T1 construct: expressed in transfected cells
Nature of the test: Whole-cell patch-clamp, HEK293-rTRPM8 cells. It is filed as cell-based. On the procedure: To confirm the antagonistic activity, electrophysiology (patch-clamp) studies were performed on HEK293 cells expressing the rTRPM8 channel. […] Then, using a holding voltage of −60 mV, different concentrations of RGM8-51 were used to establish the concentration/response curve for rTRPM8 current blockade.
Whole-cell patch-clamp recordings from HEK293-rTRPM8 cells were carried out 2 days after seeding on 12 mm Ø glass coverslips treated with poly-L-lysine solution (Sigma Aldrich, Spain); the intracellular pipette solution contained (in mM) 150 NaCl, 5 EGTA, 3 MgCl2 and 10 HEPES, adjusted to pH 7.2 with NaOH, and the extracellular solution contained (in mM) 150 NaCl, 6 CsCl, 1.5 CaCl2, 1 MgCl2, 10 D-glucose and 10 HEPES, adjusted to pH 7.4 with NaOH. The TRPM8 activity was measured by the application of two pulses of 100 μM menthol in a time interval of 2 min and a 30 s perfusion of the different compound concentrations before the second menthol pulse.
Data were sampled at 10 kHz (EPC10 amplifier with PatchMaster 2.53 software, HEKA Electronics, Lambrecht, Germany) and low-pass filtered at 3 kHz for analysis (PatchMaster 2.53 and GraphPad Prism 6.0, Graphpad Software, San Diego, CA, USA). The series resistance was <10 MΩ and to minimize voltage errors was compensated by 60–80%. […] Cell capacitance was measured and used to estimate the current density (J, pA/pF).
Data analysis: For the whole-cell patch-clamp experiments, results are expressed as the percentage of remaining activation of the TRPM8 channel. This is calculated by normalizing the ratio (p2/p1) of testing conditions to the ratio (p2/p1) of the control condition. […] All data are expressed as the mean ± standard error of the mean (SEM) (n = 5–8). In the current-clamp experiments, the change in membrane potential is expressed as the difference between the resting membrane potential and the membrane potential after the addition of a stimuli. Data were analyzed as previously described (GraphPad 6.0, one-way ANOVA followed by Bonferroni multiple comparisons test, and ROUT method, Q = 10%).
Background: Patch clamp records ionic current or voltage across a cell membrane.

The target in the next test is T2, hCB2 (Homo sapiens, UniProt P34972).
T2 construct: host or cells: CHO
T2 sequence (P34972 whole entry): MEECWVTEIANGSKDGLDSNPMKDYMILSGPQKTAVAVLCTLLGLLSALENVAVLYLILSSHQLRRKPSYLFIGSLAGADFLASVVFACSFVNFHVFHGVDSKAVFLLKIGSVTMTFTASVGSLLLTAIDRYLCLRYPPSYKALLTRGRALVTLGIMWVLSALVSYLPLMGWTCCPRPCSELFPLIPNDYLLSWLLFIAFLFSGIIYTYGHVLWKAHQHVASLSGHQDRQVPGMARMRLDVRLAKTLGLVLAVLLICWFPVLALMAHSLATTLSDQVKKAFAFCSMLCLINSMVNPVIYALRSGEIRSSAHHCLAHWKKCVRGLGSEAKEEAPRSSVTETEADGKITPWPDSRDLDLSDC
Nature of the test: Radioligand binding assay, CHO cells, hCB2. The method, then: To define whether β–lactam derivative RGM8-51 could bind to CGRPR, CB2 and M3 receptors, in vitro binding assays were performed, using CHO cell lines transfected with these receptors. The degree of binding was determined by using specific radioligands for each receptor (Table 2, footnote).
These studies were subcontracted to Eurofins-CEREP or Eurofins-PANLABS. Briefly, agonists and antagonist assays were performed in cell cultures overexpressing the corresponding channel (CHO: TRPV1 and TRPA1; HEK293: TRPV3 and ASIC3). In vitro pharmacology, cellular channel functional assays: the compound was prepared in assay buffer to the final concentration, 10 μM. […] The agonist assay was conducted on fluorimeter instruments where the test compound, vehicle controls, and reference agonist were added to the assay plate after a fluorescence baseline was established. […] For the antagonist assay, the compound was pre-incubated for five minutes at room temperature, and then challenged with the EC80 concentration of the reference agonist after establishment of a fluorescence baseline. […] Binding assay results are expressed as a percent of control specific binding. […] Aqueous solubility (μM) was determined by comparing the peak area of the principal peak in a calibration standard (200 μM) containing organic solvent (methanol/water, 60/40, v/v) with the peak area of the corresponding peak in a buffer sample. […]

For orientation: IC50 means the concentration at which inhibition is half-maximal. Lower therefore signals higher potency. The term inhibition denotes the share of the control response that was lost under treatment.

T1 sequence (Q8R455 whole entry): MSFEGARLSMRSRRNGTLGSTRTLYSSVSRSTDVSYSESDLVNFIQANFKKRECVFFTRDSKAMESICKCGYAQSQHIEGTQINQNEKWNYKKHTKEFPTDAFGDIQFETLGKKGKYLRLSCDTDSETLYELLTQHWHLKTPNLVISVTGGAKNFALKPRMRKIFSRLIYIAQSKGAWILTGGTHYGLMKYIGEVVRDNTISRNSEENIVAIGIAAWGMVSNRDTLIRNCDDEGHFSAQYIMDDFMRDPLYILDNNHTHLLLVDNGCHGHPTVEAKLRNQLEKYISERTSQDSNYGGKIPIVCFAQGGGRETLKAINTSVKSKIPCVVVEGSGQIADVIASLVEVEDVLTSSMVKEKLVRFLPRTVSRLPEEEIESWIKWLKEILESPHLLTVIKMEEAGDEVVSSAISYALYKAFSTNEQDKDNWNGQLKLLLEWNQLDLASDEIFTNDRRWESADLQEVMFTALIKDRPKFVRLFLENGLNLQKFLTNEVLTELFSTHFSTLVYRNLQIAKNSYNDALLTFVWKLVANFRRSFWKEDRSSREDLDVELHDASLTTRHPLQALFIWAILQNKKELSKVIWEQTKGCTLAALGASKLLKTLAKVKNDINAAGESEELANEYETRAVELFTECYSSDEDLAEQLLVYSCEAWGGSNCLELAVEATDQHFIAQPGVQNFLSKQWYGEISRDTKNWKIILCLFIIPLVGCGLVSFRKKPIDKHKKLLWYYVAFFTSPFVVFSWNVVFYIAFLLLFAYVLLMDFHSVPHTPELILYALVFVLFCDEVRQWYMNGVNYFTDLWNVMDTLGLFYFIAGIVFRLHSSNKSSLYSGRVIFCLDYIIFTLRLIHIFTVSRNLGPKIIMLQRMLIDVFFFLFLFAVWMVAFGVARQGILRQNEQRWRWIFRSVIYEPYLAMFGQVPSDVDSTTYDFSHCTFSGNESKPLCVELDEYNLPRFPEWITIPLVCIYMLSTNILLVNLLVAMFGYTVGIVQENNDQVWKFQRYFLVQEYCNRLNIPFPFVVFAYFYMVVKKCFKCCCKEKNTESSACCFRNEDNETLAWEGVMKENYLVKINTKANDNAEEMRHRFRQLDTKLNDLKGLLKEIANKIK

In the case of `C[C@@H]1C(=O)N(C[C@H](Cc2ccccc2)N(Cc2ccccc2)Cc2ccccc2)[C@]1(Cc1ccccc1)C(=O)OC(C)(C)C` [RGM8-51, 4(S)-Benzyl-3S-methyl-4-(tert-butoxy)carbonyl-1-[(2′S-dibenzylamino-3′-phenyl)prop-1′-yl]-2-oxoazetidine], the “menthol-evoked outward rectifying current” value on rTRPM8 (10 μM compound, 100 µM menthol) is “clearly reduced”. The same molecule registered a 50% inhibitory concentration (IC50) on rTRPM8 (HEK293-rTRPM8, 100 μM menthol, holding voltage −60 mV) of 970 ± 1560 nM. In addition, the “Binding hCB2 (%), inhibition of specific binding” value at hCB2 (10 μM, radioligand [3H]WIN 55212-2) was “did not show significant affinity”. At hCB2 (radioligand [3H]WIN 55212-2, read-out: Binding hCB2 (%), inhibition of specific binding), the inhibition at 10 µM was 7.3 ± 0.3%.
